The molecules below were run on test plant species (assay: Post-emergent herbicidal activity test (greenhouse, foliar spray, visual growth reduction)). Settings: post-emergence, 336 h, ALOMY: blackgrass (Alopecurus myosuroides), 140 g ai/ha, 14 days after application, read-out: Visual Growth Reduction (%) 14 Days After Application, ALOMY.
Assay type: in vivo
Outline: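 Visual percent injury (0-100) rated 14 d after treatment, relative to nontreated and solvent-blank plants. Test plants at first or second true leaf stage received an overhead track-sprayer application at 187 L/ha. Compounds were formulated in aqueous acetone/DMSO carrier containing crop oil concentrate and X-77 surfactant.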

SMILES | pest or weed control at 140 g/ha
COc1cc(C(F)(F)F)ccc1-c1nc(C(=O)O)c(Cl)cc1F [F190, 3-Chloro-5-fluoro-6-(2-methoxy-4-(trifluoromethyl)phenyl) picolinic acid] | 0 to 29%
O=C(O)c1nc(-c2ccc(C(F)(F)F)cc2Cl)ccc1Cl [F61, 3-chloro-6-(2-chloro-4-(trifluoromethyl)phenyl)picolinic acid] | 60 to 74%

Same assay, conditions: post-emergence, 336 h, AMARE: redroot pigweed (Amaranthus retroflexus), 140 g ai/ha, 14 days after application, read-out: Visual Growth Reduction (%) 14 Days After Application, AMARE

SMILES | pest or weed control at 140 g/ha
COc1cc(C(F)(F)F)ccc1-c1nc(C(=O)O)c(Cl)cc1F [F190, 3-Chloro-5-fluoro-6-(2-methoxy-4-(trifluoromethyl)phenyl) picolinic acid] | 95 to 100%
O=C(O)c1nc(-c2ccc(C(F)(F)F)cc2Cl)ccc1Cl [F61, 3-chloro-6-(2-chloro-4-(trifluoromethyl)phenyl)picolinic acid] | 95 to 100%

Same assay, conditions: post-emergence, 336 h, AVEFA: wild oat (Avena fatua), 140 g ai/ha, 14 days after application, read-out: Visual Growth Reduction (%) 14 Days After Application, AVEFA

SMILES | pest or weed control at 140 g/ha
COc1cc(C(F)(F)F)ccc1-c1nc(C(=O)O)c(Cl)cc1F [F190, 3-Chloro-5-fluoro-6-(2-methoxy-4-(trifluoromethyl)phenyl) picolinic acid] | 60 to 74%
O=C(O)c1nc(-c2ccc(C(F)(F)F)cc2Cl)ccc1Cl [F61, 3-chloro-6-(2-chloro-4-(trifluoromethyl)phenyl)picolinic acid] | 60 to 74%

Same assay, conditions: post-emergence, 336 h, CHEAL: lambsquarters (Chenopodium album), 140 g ai/ha, 14 days after application, read-out: Visual Growth Reduction (%) 14 Days After Application, CHEAL

SMILES | pest or weed control at 140 g/ha
COc1cc(C(F)(F)F)ccc1-c1nc(C(=O)O)c(Cl)cc1F [F190, 3-Chloro-5-fluoro-6-(2-methoxy-4-(trifluoromethyl)phenyl) picolinic acid] | 95 to 100%
O=C(O)c1nc(-c2ccc(C(F)(F)F)cc2Cl)ccc1Cl [F61, 3-chloro-6-(2-chloro-4-(trifluoromethyl)phenyl)picolinic acid] | 95 to 100%

Same assay, conditions: post-emergence, 336 h, CIRAR: canada thistle (Cirsium arvense), 140 g ai/ha, 14 days after application, read-out: Visual Growth Reduction (%) 14 Days After Application, CIRAR

SMILES | pest or weed control at 140 g/ha
COc1cc(C(F)(F)F)ccc1-c1nc(C(=O)O)c(Cl)cc1F [F190, 3-Chloro-5-fluoro-6-(2-methoxy-4-(trifluoromethyl)phenyl) picolinic acid] | 85 to 94%
O=C(O)c1nc(-c2ccc(C(F)(F)F)cc2Cl)ccc1Cl [F61, 3-chloro-6-(2-chloro-4-(trifluoromethyl)phenyl)picolinic acid] | 85 to 94%

Same assay, conditions: post-emergence, 336 h, CYPES: yellow nutsedge (Cyperus esculentus), 140 g ai/ha, 14 days after application, read-out: Visual Growth Reduction (%) 14 Days After Application, CYPES

SMILES | pest or weed control at 140 g/ha
COc1cc(C(F)(F)F)ccc1-c1nc(C(=O)O)c(Cl)cc1F [F190, 3-Chloro-5-fluoro-6-(2-methoxy-4-(trifluoromethyl)phenyl) picolinic acid] | 0 to 29%
O=C(O)c1nc(-c2ccc(C(F)(F)F)cc2Cl)ccc1Cl [F61, 3-chloro-6-(2-chloro-4-(trifluoromethyl)phenyl)picolinic acid] | 0 to 29%

Same assay, conditions: post-emergence, 336 h, DIGSA: crabgrass (Digitaria sanguinalis), 140 g ai/ha, 14 days after application, read-out: Visual Growth Reduction (%) 14 Days After Application, DIGSA

SMILES | pest or weed control at 140 g/ha
COc1cc(C(F)(F)F)ccc1-c1nc(C(=O)O)c(Cl)cc1F [F190, 3-Chloro-5-fluoro-6-(2-methoxy-4-(trifluoromethyl)phenyl) picolinic acid] | 85 to 94%
O=C(O)c1nc(-c2ccc(C(F)(F)F)cc2Cl)ccc1Cl [F61, 3-chloro-6-(2-chloro-4-(trifluoromethyl)phenyl)picolinic acid] | 95 to 100%

Same assay, conditions: post-emergence, 336 h, ECHCG: barnyardgrass (Echinochloa crus-galli), 140 g ai/ha, 14 days after application, read-out: Visual Growth Reduction (%) 14 Days After Application, ECHCG

SMILES | pest or weed control at 140 g/ha
COc1cc(C(F)(F)F)ccc1-c1nc(C(=O)O)c(Cl)cc1F [F190, 3-Chloro-5-fluoro-6-(2-methoxy-4-(trifluoromethyl)phenyl) picolinic acid] | 95 to 100%
O=C(O)c1nc(-c2ccc(C(F)(F)F)cc2Cl)ccc1Cl [F61, 3-chloro-6-(2-chloro-4-(trifluoromethyl)phenyl)picolinic acid] | 85 to 94%

Same assay, conditions: post-emergence, 336 h, IPOHE: ivy-leaf morning glory (Ipomoea hederacea), 140 g ai/ha, 14 days after application, read-out: Visual Growth Reduction (%) 14 Days After Application, IPOHE

SMILES | pest or weed control at 140 g/ha
COc1cc(C(F)(F)F)ccc1-c1nc(C(=O)O)c(Cl)cc1F [F190, 3-Chloro-5-fluoro-6-(2-methoxy-4-(trifluoromethyl)phenyl) picolinic acid] | 95 to 100%
O=C(O)c1nc(-c2ccc(C(F)(F)F)cc2Cl)ccc1Cl [F61, 3-chloro-6-(2-chloro-4-(trifluoromethyl)phenyl)picolinic acid] | 95 to 100%

Same assay, conditions: post-emergence, 336 h, KCHSC: kochia (Bassia scoparia), 140 g ai/ha, 14 days after application, read-out: Visual Growth Reduction (%) 14 Days After Application, KCHSC

SMILES | pest or weed control at 140 g/ha
COc1cc(C(F)(F)F)ccc1-c1nc(C(=O)O)c(Cl)cc1F [F190, 3-Chloro-5-fluoro-6-(2-methoxy-4-(trifluoromethyl)phenyl) picolinic acid] | 75 to 84%
O=C(O)c1nc(-c2ccc(C(F)(F)F)cc2Cl)ccc1Cl [F61, 3-chloro-6-(2-chloro-4-(trifluoromethyl)phenyl)picolinic acid] | 85 to 94%

Same assay, conditions: post-emergence, 336 h, ORYSA: rice (Oryza sativa), 140 g ai/ha, 14 days after application, read-out: Visual Growth Reduction (%) 14 Days After Application, ORYSA

SMILES | pest or weed control at 140 g/ha
COc1cc(C(F)(F)F)ccc1-c1nc(C(=O)O)c(Cl)cc1F [F190, 3-Chloro-5-fluoro-6-(2-methoxy-4-(trifluoromethyl)phenyl) picolinic acid] | 30 to 44%
O=C(O)c1nc(-c2ccc(C(F)(F)F)cc2Cl)ccc1Cl [F61, 3-chloro-6-(2-chloro-4-(trifluoromethyl)phenyl)picolinic acid] | 45 to 59%

Same assay, conditions: post-emergence, 336 h, SETFA: giant foxtail (Setaria faberi), 140 g ai/ha, 14 days after application, read-out: Visual Growth Reduction (%) 14 Days After Application, SETFA

SMILES | pest or weed control at 140 g/ha
COc1cc(C(F)(F)F)ccc1-c1nc(C(=O)O)c(Cl)cc1F [F190, 3-Chloro-5-fluoro-6-(2-methoxy-4-(trifluoromethyl)phenyl) picolinic acid] | 95 to 100%
O=C(O)c1nc(-c2ccc(C(F)(F)F)cc2Cl)ccc1Cl [F61, 3-chloro-6-(2-chloro-4-(trifluoromethyl)phenyl)picolinic acid] | 85 to 94%

Same assay, conditions: post-emergence, 336 h, SORVU: grain sorghum (Sorghum vulgare), 140 g ai/ha, 14 days after application, read-out: Visual Growth Reduction (%) 14 Days After Application, SORVU

SMILES | pest or weed control at 140 g/ha
COc1cc(C(F)(F)F)ccc1-c1nc(C(=O)O)c(Cl)cc1F [F190, 3-Chloro-5-fluoro-6-(2-methoxy-4-(trifluoromethyl)phenyl) picolinic acid] | 95 to 100%
O=C(O)c1nc(-c2ccc(C(F)(F)F)cc2Cl)ccc1Cl [F61, 3-chloro-6-(2-chloro-4-(trifluoromethyl)phenyl)picolinic acid] | 85 to 94%

Same assay, conditions: post-emergence, 336 h, STEME: common chickweed (Stellaria media), 140 g ai/ha, 14 days after application, read-out: Visual Growth Reduction (%) 14 Days After Application, STEME

SMILES | pest or weed control at 140 g/ha
COc1cc(C(F)(F)F)ccc1-c1nc(C(=O)O)c(Cl)cc1F [F190, 3-Chloro-5-fluoro-6-(2-methoxy-4-(trifluoromethyl)phenyl) picolinic acid] | 0 to 29%
O=C(O)c1nc(-c2ccc(C(F)(F)F)cc2Cl)ccc1Cl [F61, 3-chloro-6-(2-chloro-4-(trifluoromethyl)phenyl)picolinic acid] | 0 to 29%

Same assay, conditions: post-emergence, 336 h, TRZAS: wheat, spring (Triticum aestivum), 140 g ai/ha, 14 days after application, read-out: Visual Growth Reduction (%) 14 Days After Application, TRZAS

SMILES | pest or weed control at 140 g/ha
COc1cc(C(F)(F)F)ccc1-c1nc(C(=O)O)c(Cl)cc1F [F190, 3-Chloro-5-fluoro-6-(2-methoxy-4-(trifluoromethyl)phenyl) picolinic acid] | 60 to 74%
O=C(O)c1nc(-c2ccc(C(F)(F)F)cc2Cl)ccc1Cl [F61, 3-chloro-6-(2-chloro-4-(trifluoromethyl)phenyl)picolinic acid] | 85 to 94%
